Results: article PMC8581430, “Peptide ligands targeting FGF receptors promote recovery from dorsal root crush injury via AKT/mTOR signaling” (Theranostics, 2021)

System: FGFR (phosphorylated) in DRG explants
Experiment: Western blot of phosphorylated FGFR in ex vivo DRG explants
Assay type: cell-based, Sprague-Dawley rat
Conditions: CH02 20 μM + BGJ398 2 μM, 4 h, n = 3
Description: Figure 5 Role of FGFR signaling in response to the CH02 peptide on promoting nerve regeneration. (A) Western blot analysis of phosphorylated FGFR expression in C5-T1 DRGs subjected to dorsal root crush injury, followed by CH02 treatment (20 μM). DRGs were collected after 3 days. Glyceraldehyde-3-phosphate dehydrogenase (GAPDH) antibodies were used as the loading control. (B) Western blot analysis of phosphorylated FGFR expression in ex vivo cultured DRG explants of adult Sprague-Dawley rats in response to CH02 treatment at different induction times. […] (D-F) Quantification of p-FGFR expression levels in panels A, B, and C. n = 3 independent experiments. Relative protein expression levels were quantified after normalization to FGFR2 or FGFR1. […] (H) Quantification of axon growth in DRG explants (G) using Neurite-J software (n = 5 for each condition; *control vs. CH02; #control vs. BGJ398; **p < 0.01, ***p < 0.001, ****p < 0.0001, #p < 0.05, ##p < 0.01 by two-way ANOVA with Dunnett's test; mean ± SEM). […] Images of random neurons were acquired by fluorescence microscopy. […] (J) Quantification of the longest axon length of each neuron randomly selected from (I) using Image-Pro Plus 6.0 software (n = 100 for each condition; *p < 0.05, **p < 0.01, ****p < 0.0001 by one-way ANOVA with Dunnett's; ns, not significant; mean ± SD). […]

Compound: CCN1CCN(c2ccc(Nc3cc(N(C)C(=O)Nc4c(Cl)c(OC)cc(OC)c4Cl)ncn3)cc2)CC1 [BGJ398]
- effect of inhibitor on CH02-upregulated phosphorylated FGFR: counteracted CH02 effects on upregulated phosphorylated FGFR levels
